Results from the NIST ThermoML archive (doi:10.1021/je3013028).
Numbers after ± are expanded uncertainties.

Columns and labels:
[1] = refractive index (Na D-line) (dimensionless); conditions: 298.15 K; 101.33 kPa; Liquid; Standard Abbe refractometry
[2] = Liquid, Ebulliometric method (Recirculating still)

| Compound | refractive index [1] | vapor or sublimation pressure ([2]; 308.14 K) | vapor or sublimation pressure ([2]; 335.63 K) | vapor or sublimation pressure ([2]; 336.63 K) | further results |
| --- | --- | --- | --- | --- | --- |
| CCCS [1-propanethiol] | 1.4353 ± 0.0003 | – | – | – | – |
| CCSCC [3-thiapentane] | 1.43998 ± 0.00032 | – | – | 39.7 ± 0.8 kPa | – |
| CC(C)(C)S [2-methyl-2-propanethiol] | 1.42 ± 0.00031 | – | – | – | vapor or sublimation pressure ([2]; 336.69 K): 98.5 ± 0.9 kPa |

Further lines, with some results ahead:

| refractive index [1] | vapor or sublimation pressure ([2]; 308.14 K) | vapor or sublimation pressure ([2]; 335.63 K) | vapor or sublimation pressure ([2]; 336.63 K) | Compound | further results |
| --- | --- | --- | --- | --- | --- |
| – | 786.6 ± 3.5 kPa | 1540 ± 6.2 kPa | 1572.2 ± 7.7 kPa | COC [dimethyl ether] | vapor or sublimation pressure ([2]; 336.7 K): 1572.2 ± 7.7 kPa |
| 1.52869 ± 0.00031 | 16.9 ± 0.8 kPa | 49.4 ± 0.8 kPa | – | c1ccsc1 [thiophene] | – |
| 1.3851 ± 0.0003 | – | – | – | C=CCCCC [hex-1-ene] | vapor or sublimation pressure ([2]; 328.15 K): 77 ± 0.5 kPa; vapor or sublimation pressure ([2]; 335.74 K): 98.7 ± 0.6 kPa; vapor or sublimation pressure ([2]; 336.09 K): 99.8 ± 0.6 kPa |
